Reference: US8562669B2, “Methods of application of coatings composed of hydrophobic, high glass transition polymers with tunable drug release rates” (Abbott Cardiovascular Systems Inc., priority 2008, dated 2013)

Test: Cumulative drug release at 24 hours from coated stents (USP type 7 tester, porcine serum)
Type: physicochemical
Conditions: stent coating of everolimus and 75:25 PLGA
Method: As used herein, any measurement of drug release, for example without limitation, release rate, release duration, or substantially released, refers to the an in-vitro measurement using a United States Pharmacopeia Type VII apparatus, using porcine serum with sodium azide optionally added (0.1% w/v) at a temperature of 37° C.
All stents were cleaned by being sonicated in isopropyl alcohol. Stents were coated with a primer layer of approximately 51 μg of 75:25 PLGA (poly(D,L-lactide-co-glycolide) provided by Boehringer Ingelheim, grade RG755S) by spraying from a solution of 2 weight % polymer in 90:10 acetone:methyl isobutyl ketone (w/w). More than one pass under the coater was required to obtain the target weight of polymer on the stent. The spraying operation was carried out with a custom made spray coater equipped with a spray nozzle, a drying nozzle, and a means to rotate and translate the stent under the nozzles with the processing parameters outlined in Table 1. Subsequent to coating, all stents were baked in a forced air convection oven at 140° C. for 30 minutes. […] More than one pass under the coater was required to obtain the target weight of polymer on the stent. The spraying operation was carried out with the same coater used for the primer spraying with the following parameters outlined in Table 2. After the drug layer coating, the stents were baked in a force air convection oven at 50° C. for 1 hour. After baking the coating, the stents were crimped onto 3.0×12 mm XIENCE V catheters, placed in protective tubular coils, and then sealed in Argon filled foil pouches. The stents were not sterilized. Cumulative release of the drug everolimus at 24 hours was determined using a United States Pharmacopeia type 7 tester in porcine serum with sodium azide 0.1% (w/v) added as the dissolution media. Everolimus released into solution was determined by HPLC analysis on the amount of drug remaining on the stent. The cumulative release expressed is one minus the fractional amount of drug remaining divided by the theoretical quantity or dose of drug per stent. In this experiment, the same drug to polymer ratio and the same polymer and drug were used but the spray coating was accomplished with different solvents. In one set of stents, the solvent was 100% acetone while for other stents the solvent was a 50:50 (w/w) mixture of acetone and methyl isobutyl ketone. The cumulative release as measured of drug after 24 hours for n=3 stents is illustrated in FIG. 1.
Stents were cleaned, coated with a primer of 75/25 PLGA, and then coated with a drug layer as described in Example 1 except that the drug to polymer ratio was 1:2 (and therefore the % solids in the coating solution was 3% (w/w)). […]

- cumulative release at 24 hours (drug:polymer 1:1, sprayed from 50:50 (w/w) acetone:methyl isobutyl ketone, 37° C.): about 96%
- cumulative release at 24 hours (drug:polymer 1:1, sprayed from 100% acetone, 37° C.): about 23%
- cumulative release at 24 hours (drug:polymer 1:2 as printed, sprayed from 50:50 (w/w) acetone:dimethyl acetamide): about 42%
- cumulative release at 24 hours (drug:polymer 1:2 as printed, sprayed from 50:50 acetone:methyl isobutyl ketone): about 83%
Structure (SMILES): CO[C@H]1C[C@@H]2CC[C@@H](C)[C@@](O)(O2)C(=O)C(=O)N2CCCC[C@H]2C(=O)O[C@H]([C@H](C)C[C@@H]2CC[C@@H](OCCO)[C@H](OC)C2)CC(=O)[C@H](C)/C=C(\C)[C@@H](O)[C@@H](OC)C(=O)[C@H](C)C[C@H](C)/C=C/C=C/C=C/1C [everolimus]
